Consider four compounds from patent US20190365951A1, “HUMAN CARDIAC TISSUE CONSTRUCT, RELATED METHODS AND USES” (FUNDACIÓ INSTITUTE DE BIOENGINYERIA DE CATALUNYA (IBEC), priority 2018, published 2019).

SMILES strings stand for the structures.

One data set concerns the target hERG ion channels (Homo sapiens, UniProt Q12809). To be noted: HEK293, CHO; Mathur, A. et al, 2015; cited from earlier work.
The test system of data set [1] is CardioSlice constructs.
Experimental: All chemicals were dissolved in distilled water to make stock solutions, and serial dilutions were made in RPMI (Invitrogen) culture medium. To test changes in the β-adrenergic response, 1 μM isoproterenol was injected to the bioreactor circuit through the luer injection port (Inycom). For cholinergic stimulation, 10 μM carbachol was injected, and sotalol was added at 10 μM to evaluate the blockade of hERG current (Braam, S. R. et al, 2013). Spontaneous activity of cardiac constructs was recorded as baseline period. Cardiac constructs were treated with pharmacological agents during 10 min for immediate analysis, followed by 5 min washout for isoproterenol and carbachol, and 15 min for sotalol.
Electrocardiogram (ECG)-like signals were acquired through the three electrodes configuration built in the custom-made cell culture chamber and using an advanced transducer amplifier. The gold electrode acted as internal reference, and electrical activity of cardiac macrotissues was acquired using the gold and graphite electrodes. In particular, “Amplifier I” acquires activity between: “Graphite+ and Reference”; and “Amplifier II” acquires activity between: “Graphite+ and Graphite−” (FIG. 8). The obtained ECG-like signal is generated by the sum of the synchronized action potentials of all cardiomyocytes. Its shape is similar to regular surface ECG signals for humans, including the presence of the QRS complex and T wave (FIG. 4a). […] ECG-like signal recordings were monitored and stored in a computer using the AcqKnowledge software v.4.1 (BIOPAC, Santa Barbara, Calif., USA), and were analyzed with MATLAB (v. R2014b, Natick, Mass., USA). ECG-like signals were recorded at a sampling frequency of 12.5 kHz, and were filtered and decimated at a sampling rate of 500 Hz.
Recorded ECG-like signals were bandpass filtered (zero-phase fourth-order Butterworth filter with cut-off frequencies of 0.2 and 125 Hz), to use the main bandwidth of the classical electrocardiographic studies. […] Beat-to-beat fiducial points were detected and then signal averaging techniques were applied to estimate the main pattern of each ECG-like signal, enabling analysis and interpretation of QRS complex, T wave and QT interval (FIG. 4a and FIG. 5c).
During the experiments involving drug treatment, instantaneous beat rate expressed as beats per minute (bpm) was calculated over ECG-like signals, generated in both control and CardioSlice constructs at baseline and after drug application. Beat rate was assessed by measuring the RR interval, which is the time elapsing between two consecutive R waves in the electrocardiogram. Relative beat rate to baseline was calculated to evaluate the behavior of cardioactive drug effects.
Data set [2] has as its system Control constructs (non-stimulated human cardiac macrotissues). The data set is described as follows: ECG-like signal recording of non-stimulated human cardiac macrotissues under drug treatment. In kind it is cell-based. Particulars: 10 μM sotalol, 10 min treatment, day 14 of culture. From the text:
Isoproterenol, carbachol and sotalol were purchased from Sigma-Aldrich.

Data set [3] deals with CardioSlice constructs. Description: Chronotropic/contractile response by video area-oscillation analysis (custom MATLAB program). In kind it is cell-based, human. Here is the method:
FIG. 11. Chronotropic responses of human cardiac macrotissues to the proarrhythmic drug sotalol. Changes in the beat rate were analyzed through custom MATLAB program at different incubation times (from 0 min to 40 min). The area in pixels of each construct was obtained, and its oscillation was represented over time (relative to the highest number of pixels recorded). (a) Sotalol effects on non-stimulated cardiac constructs (Control). (b) Sotalol effects on electrically stimulated cardiac constructs (CardioSlice).
Contractile function of cardiac macrotissues in spontaneous beating and in response to electric field stimulation was assessed in a set-up equivalent to one previously described (Tandon, N. et al, 2009; Tandon, N. et al, 2011). […] The space between the electrodes was filled with Tyrode's salts solution (Sigma-Aldrich Quimica), and cardiac macrotissues were imaged and video recorded using a Stereo Microscope Leica MZ10F (Leica Microsystems) with a DFC4025C Digital Microscope Camera (Leica Microsystems). […] To measure the amplitude of contraction of each cardiac macrotissue, spontaneous beating of the constructs was recorded for at least 10 s. Then, the Fractional Area Change (FAC) of 10 beats was calculated using a custom MATLAB program (v. R2014b, Natick, Mass., USA) as previously described (Tandon, N. et al., 2009). […]

Sequence of hERG ion channels (Q12809 whole entry): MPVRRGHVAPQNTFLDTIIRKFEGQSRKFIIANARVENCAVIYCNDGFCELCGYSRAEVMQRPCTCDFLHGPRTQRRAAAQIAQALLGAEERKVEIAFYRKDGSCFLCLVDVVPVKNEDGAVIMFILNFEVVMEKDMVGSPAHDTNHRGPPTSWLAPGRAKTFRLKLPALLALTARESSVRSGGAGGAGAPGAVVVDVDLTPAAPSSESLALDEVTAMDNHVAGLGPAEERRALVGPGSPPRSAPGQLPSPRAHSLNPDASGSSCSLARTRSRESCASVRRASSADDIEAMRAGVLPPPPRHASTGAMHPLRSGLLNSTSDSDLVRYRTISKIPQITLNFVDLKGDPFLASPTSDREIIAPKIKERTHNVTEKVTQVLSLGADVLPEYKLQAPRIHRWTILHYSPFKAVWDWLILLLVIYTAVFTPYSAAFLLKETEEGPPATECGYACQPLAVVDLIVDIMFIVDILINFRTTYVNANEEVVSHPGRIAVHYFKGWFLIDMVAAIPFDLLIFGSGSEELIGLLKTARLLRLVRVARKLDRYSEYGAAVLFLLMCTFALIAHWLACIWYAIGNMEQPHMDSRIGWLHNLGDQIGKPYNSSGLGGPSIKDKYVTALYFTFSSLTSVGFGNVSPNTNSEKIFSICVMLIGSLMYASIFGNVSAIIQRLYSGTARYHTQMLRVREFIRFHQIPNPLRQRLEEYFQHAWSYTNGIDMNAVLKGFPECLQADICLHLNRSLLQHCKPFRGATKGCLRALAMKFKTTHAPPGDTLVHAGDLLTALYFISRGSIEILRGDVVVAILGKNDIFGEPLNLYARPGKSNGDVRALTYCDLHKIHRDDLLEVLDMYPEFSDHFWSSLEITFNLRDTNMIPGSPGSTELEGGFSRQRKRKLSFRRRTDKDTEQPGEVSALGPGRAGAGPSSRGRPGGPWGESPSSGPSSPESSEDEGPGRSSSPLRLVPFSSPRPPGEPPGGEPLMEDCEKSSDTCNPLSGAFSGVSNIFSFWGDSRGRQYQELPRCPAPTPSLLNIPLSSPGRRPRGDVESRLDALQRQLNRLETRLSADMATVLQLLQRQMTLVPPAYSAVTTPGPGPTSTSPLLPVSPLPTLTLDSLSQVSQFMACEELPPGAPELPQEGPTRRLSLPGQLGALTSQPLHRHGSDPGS

In the case of `COc1cc2nc(N(C)CCCNC(=O)C3CCCO3)nc(N)c2cc1OC` (stereo not drawn) [alfuzosin], at hERG ion channels, the “outcome of hERG safety assay versus actual cardiac safety” value is recorded as “false negatives”.
`C[N+](C)(C)CCOC(N)=O` [carbachol]: the beating frequency entry in the data set on CardioSlice constructs [1] (10 μM carbachol, 10 min incubation, relative to baseline) is given as “statistically significant decrease”.
On to `CC(C)NCC(O)c1ccc(NS(C)(=O)=O)cc1` (stereo not drawn) [sotalol], for which, in data set [2], the beating frequency entry was “random increases and decreases”; the “morphology of ECG-like signals” value is listed as “no alteration”. Moreover, the “chronotropic response (beat rate changes)” value in the data set on CardioSlice constructs [3] (sotalol, incubation times from 0 min to 40 min) is listed as “a negative chronotropic effect can be observed, followed by a progressive emergence of cardiac arrhythmias”. In addition, the “contractile patterns (mechanical level)” value in the data set with CardioSlice constructs [3] (sotalol-treated CardioSlice constructs) was “dyssynchronous contractile patterns”. In addition, the “increase of the QT interval (prolongation)” value in the data set with CardioSlice constructs [1] (human, 10 μM) is “greater than 20%”.
`CC(C)NCC(O)c1ccc(O)c(O)c1` (stereo not drawn) [isoproterenol]: the RR intervals result in the data set with CardioSlice constructs [1] (1 μM isoproterenol, 10 min incubation) was “decreased”. Moreover, the beating rate entry in the data set on CardioSlice constructs [1] (1 μM isoproterenol, 10 min incubation, relative to baseline) was “statistically significant increment”.
